Data on 20 compounds can be found in ChEMBL document CHEMBL4393727, “Investigating 1,2,3,4,5,6-hexahydroazepino[4,3-b]indole as scaffold of butyrylcholinesterase-selective inhibitors with additional neuroprotective activities for Alzheimer's disease” (Eur J Med Chem, 2019).

Activity calls are given as the source filed them. The calls are words filed in the database; no cut-off is given here. Where only a bound is given, the exact number is not on record here.

A word on the IC50: it is the concentration that inhibits the measured activity by half. By inhibition is commonly meant how much of the control response was suppressed. A word on the solubility: it is how much of the substance goes into solution per volume. A word on the Ki: it is the dissociation constant of the complex between target and ligand, obtained from inhibition or displacement.

Series [1] deals with T1, Cholinesterase (Equus caballus, UniProt P81908). Briefly: Inhibition of equine serum BChE using butyrylthiocholine as substrate preincubated for 20 mins followed by substrate addition and measured upto 5 mins by Ellman's method.
T1 sequence (P81908 whole entry): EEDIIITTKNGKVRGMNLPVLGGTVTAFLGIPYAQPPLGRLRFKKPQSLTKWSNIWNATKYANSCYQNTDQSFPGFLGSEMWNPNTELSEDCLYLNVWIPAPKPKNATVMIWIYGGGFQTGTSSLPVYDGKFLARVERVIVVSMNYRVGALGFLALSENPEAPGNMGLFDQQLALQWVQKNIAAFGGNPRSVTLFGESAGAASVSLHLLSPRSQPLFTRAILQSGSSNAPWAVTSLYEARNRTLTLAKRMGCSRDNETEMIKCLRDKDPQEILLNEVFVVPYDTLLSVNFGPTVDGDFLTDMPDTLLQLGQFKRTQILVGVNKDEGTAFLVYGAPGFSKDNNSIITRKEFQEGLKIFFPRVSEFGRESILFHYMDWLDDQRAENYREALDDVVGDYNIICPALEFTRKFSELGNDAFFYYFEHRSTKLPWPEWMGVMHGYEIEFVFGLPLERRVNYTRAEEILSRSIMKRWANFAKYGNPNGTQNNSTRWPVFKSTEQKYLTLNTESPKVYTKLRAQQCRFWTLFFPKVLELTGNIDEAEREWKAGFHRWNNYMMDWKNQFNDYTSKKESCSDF
Series [2] deals with Acetylcholinesterase (Electrophorus electricus, UniProt O42275). Briefly: Inhibition of electric eel AChE using acetylthiocholine iodide as substrate preincubated for 20 mins followed by substrate addition and measured upto 5 mins by Ellman's method. In general terms: DTNB colorimetry detects thiols as they appear.
Acetylcholinesterase (Electrophorus electricus, UniProt O42275), sequence (O42275 whole entry): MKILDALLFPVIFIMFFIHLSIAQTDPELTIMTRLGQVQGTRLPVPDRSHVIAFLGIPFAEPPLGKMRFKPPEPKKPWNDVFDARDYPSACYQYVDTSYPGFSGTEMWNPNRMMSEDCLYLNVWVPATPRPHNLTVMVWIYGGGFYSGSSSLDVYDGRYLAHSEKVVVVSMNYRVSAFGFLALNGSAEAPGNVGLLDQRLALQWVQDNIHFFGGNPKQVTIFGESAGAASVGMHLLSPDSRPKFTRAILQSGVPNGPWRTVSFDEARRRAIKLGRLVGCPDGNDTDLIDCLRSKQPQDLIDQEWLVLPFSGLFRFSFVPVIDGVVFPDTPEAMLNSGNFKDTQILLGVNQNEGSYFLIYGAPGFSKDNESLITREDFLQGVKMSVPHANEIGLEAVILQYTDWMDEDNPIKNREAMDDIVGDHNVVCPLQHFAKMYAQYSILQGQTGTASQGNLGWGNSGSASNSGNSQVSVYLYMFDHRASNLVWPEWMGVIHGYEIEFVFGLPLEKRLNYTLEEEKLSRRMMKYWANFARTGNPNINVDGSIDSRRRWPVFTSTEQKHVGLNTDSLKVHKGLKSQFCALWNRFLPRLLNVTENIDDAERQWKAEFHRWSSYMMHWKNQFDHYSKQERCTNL
Series [3] addresses Amyloid-beta precursor protein (Homo sapiens) (UniProt P05067). Briefly: Inhibition of HFIP treated amyloid beta (1 to 40) (unknown origin) self-induced aggregation at 100 uM measured after 2 hrs by Thioflavin T fluorescence assay.
Series [4] has as its system SH-SY5Y. Briefly: Neuroprotective activity against H2O2-induced oxidative stress in human SH-SY5Y cells assessed as reduction in ROS generation at 100 uM preincubated for 1 hr followed by DCFH-DA addition for 30 mins and subsequent co-treatment with compound and H2O2 for 30 min by fluorescence assay. The format is functional, cell-based.
Series [5] in a line: Selectivity index, ratio of IC50 for electric eel AChE to IC50 for equine serum BuChE.
Series [6] deals with Amyloid-beta precursor protein (Homo sapiens) (UniProt P05067). Briefly: Inhibition of HFIP treated amyloid beta (1 to 40) (unknown origin) self-induced aggregation at 100 uM measured after 2 hrs by Thioflavin T fluorescence assay relative to control.
Amyloid-beta precursor protein (Homo sapiens), sequence (P05067 whole entry): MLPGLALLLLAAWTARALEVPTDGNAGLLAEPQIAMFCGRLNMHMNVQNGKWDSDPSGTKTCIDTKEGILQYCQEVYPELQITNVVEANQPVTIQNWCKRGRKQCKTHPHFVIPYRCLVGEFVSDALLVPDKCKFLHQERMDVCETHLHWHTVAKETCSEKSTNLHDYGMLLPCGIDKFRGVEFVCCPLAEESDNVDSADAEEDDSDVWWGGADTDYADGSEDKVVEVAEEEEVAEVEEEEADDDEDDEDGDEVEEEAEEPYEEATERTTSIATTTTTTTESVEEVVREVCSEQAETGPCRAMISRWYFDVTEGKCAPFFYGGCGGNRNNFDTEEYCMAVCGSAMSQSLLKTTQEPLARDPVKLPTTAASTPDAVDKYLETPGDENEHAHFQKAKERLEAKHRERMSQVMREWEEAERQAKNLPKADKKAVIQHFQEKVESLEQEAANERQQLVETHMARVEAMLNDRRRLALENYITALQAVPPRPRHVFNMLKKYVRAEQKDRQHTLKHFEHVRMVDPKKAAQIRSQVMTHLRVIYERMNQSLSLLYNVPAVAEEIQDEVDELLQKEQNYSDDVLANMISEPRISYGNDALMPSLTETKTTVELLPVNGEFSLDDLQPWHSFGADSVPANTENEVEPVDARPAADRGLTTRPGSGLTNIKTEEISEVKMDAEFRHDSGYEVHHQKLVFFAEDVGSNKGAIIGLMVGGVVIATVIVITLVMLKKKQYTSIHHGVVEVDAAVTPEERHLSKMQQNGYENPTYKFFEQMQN
Series [7] is described as follows: Aqueous solubility of the compound in phosphate buffered saline at pH 7.4 by reverse phase HPLC analysis. The format is physicochemical.
Series [8] has as its system SH-SY5Y. Nature of the series: Neuroprotection activity against amyloid beta (1 to 42)-induced cytotoxicity in human SH-SY5Y cells assessed as recovery of viability at 5 uM by MTT assay. The note with it: TDE = time-dependent effect. The format is functional, cell-based. In general terms: Tetrazolium dyes change colour on reduction, which living cells bring about.
Series [9] has as its system SH-SY5Y. Briefly: Neuroprotection activity against amyloid beta (1 to 42)-induced cytotoxicity in human SH-SY5Y cells assessed as recovery of viability at 5 uM measured after 48 hrs by MTT assay relative to control. The format is functional.
The target in series [10] is Acetylcholinesterase (Homo sapiens, UniProt P22303). Nature of the series: Inhibition of human AChE using acetylthiocholine iodide as substrate preincubated for 20 mins followed by substrate addition and measured upto 5 mins by Ellman's method.
Acetylcholinesterase (Homo sapiens, UniProt P22303), sequence (P22303 whole entry): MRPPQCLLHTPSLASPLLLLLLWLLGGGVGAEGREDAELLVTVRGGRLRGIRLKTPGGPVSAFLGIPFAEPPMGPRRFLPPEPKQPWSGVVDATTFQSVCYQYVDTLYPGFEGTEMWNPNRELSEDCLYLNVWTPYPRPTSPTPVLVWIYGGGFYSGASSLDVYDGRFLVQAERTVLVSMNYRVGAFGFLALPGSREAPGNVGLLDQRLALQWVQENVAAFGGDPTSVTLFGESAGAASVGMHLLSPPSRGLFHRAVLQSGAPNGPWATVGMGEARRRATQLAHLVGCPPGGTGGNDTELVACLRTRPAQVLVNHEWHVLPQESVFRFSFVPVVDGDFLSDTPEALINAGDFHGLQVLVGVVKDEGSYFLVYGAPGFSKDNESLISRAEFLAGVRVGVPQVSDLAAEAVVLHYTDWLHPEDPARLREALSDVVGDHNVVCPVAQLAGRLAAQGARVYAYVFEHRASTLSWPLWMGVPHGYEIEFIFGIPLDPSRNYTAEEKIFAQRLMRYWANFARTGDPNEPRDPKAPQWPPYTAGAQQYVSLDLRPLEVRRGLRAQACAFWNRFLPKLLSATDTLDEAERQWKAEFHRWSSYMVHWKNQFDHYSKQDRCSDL
The subject of series [11] is SH-SY5Y. Nature of the series: Neuroprotection activity against amyloid beta (1 to 42)-induced toxicity in human SH-SY5Y cells assessed as recovery of viability at 5 uM measured after 24 hrs by MTT assay relative to control. The format is functional.
Series [12] relates to SH-SY5Y. Briefly: Cytotoxicity in human SH-SY5Y cells assessed as decrease in cell viability at 5 uM measured after 48 hrs by MTT assay relative to control. The format is cell-based.
Series [13] deals with Cholinesterase (Homo sapiens, UniProt P06276). Briefly: Inhibition of human BChE using butyrylthiocholine as substrate preincubated for 20 mins followed by substrate addition and measured upto 5 mins by Ellman's method.
Cholinesterase (Homo sapiens, UniProt P06276), sequence (P06276 whole entry): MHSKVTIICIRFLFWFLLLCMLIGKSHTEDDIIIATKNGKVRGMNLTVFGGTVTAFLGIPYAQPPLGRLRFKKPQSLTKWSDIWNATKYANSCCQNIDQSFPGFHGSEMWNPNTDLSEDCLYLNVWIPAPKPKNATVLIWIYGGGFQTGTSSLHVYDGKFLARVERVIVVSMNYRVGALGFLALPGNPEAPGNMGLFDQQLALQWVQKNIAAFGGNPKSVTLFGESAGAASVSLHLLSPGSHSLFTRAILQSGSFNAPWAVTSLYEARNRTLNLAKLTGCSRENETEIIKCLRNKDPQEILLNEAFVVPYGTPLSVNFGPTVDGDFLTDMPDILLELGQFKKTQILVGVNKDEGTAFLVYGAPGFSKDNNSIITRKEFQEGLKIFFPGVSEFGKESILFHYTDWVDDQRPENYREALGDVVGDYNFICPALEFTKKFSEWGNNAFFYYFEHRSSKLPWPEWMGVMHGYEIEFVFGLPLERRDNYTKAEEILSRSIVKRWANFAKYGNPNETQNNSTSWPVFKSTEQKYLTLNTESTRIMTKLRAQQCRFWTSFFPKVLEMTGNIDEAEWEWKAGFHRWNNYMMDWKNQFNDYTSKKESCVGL
Series [14] deals with SH-SY5Y. Briefly: Neuroprotective activity against H2O2-induced oxidative stress in human SH-SY5Y cells assessed as reduction in ROS generation preincubated for 1 hr followed by DCFH-DA addition for 30 mins and subsequent co-treatment with compound and H2O2 for 30 min by fluorescence assay. The format is functional, cell-based.
Series [15] can be described thus: Selectivity index, ratio of IC50 for electric eel AChE to IC50 for human BuChE.
Series [16] deals with T1, Cholinesterase. Briefly: Mixed type inhibition of equine serum BChE assessed as Ki using butyrylthiocholine as substrate preincubated for 20 mins followed by substrate addition and measured upto 5 mins by Ellman's method based Lineweaver-Burk plot analysis.

With `Fc1ccc(CN2CCCc3[nH]c4ccc(F)cc4c3C2)cc1`, the IC50 in series [1] was 2.9 µM; in series [2], 4.1 µM.

For the compound `O=c1c(O)c(-c2ccc(O)c(O)c2)oc2cc(O)cc(O)c12`, the inhibition entry in [3] is “Active”. In series [4], the result was Active.

For the compound `Cc1ccc(CN2CCCc3[nH]c4ccccc4c3C2)cc1`, the IC50 in [1] was 0.95 µM; in series [2], 10 µM. Also, the Ratio IC50 in series [5] is 10.

Take `c1ccc(CN2CCCc3[nH]c4ccccc4c3C2)cc1`: in [6], the inhibition lay in the range of 38 to 54%. The concentration for half-maximal inhibition (IC50) in series [1] is 2 µM; in series [2] it was 8.7 µM.

In series [6], `Cn1c2c(c3ccccc31)CN(CCc1ccccc1)CCC2` yielded an inhibition of 38 to 54%. For the same compound, the IC50 in series [1] worked out at 0.86 µM; in series [2], 12 µM. The Ratio IC50 in series [5] fell in the range of 10 to 100.

In the case of `Fc1ccc2[nH]c3c(c2c1)CN(Cc1ccccc1)CCC3`, the half-inhibitory concentration (IC50) in series [1] was 2.13 µM; in series [2] it was 4.96 µM.

Take `Cc1ccc2[nH]c3c(c2c1)CN(Cc1ccccc1)CCC3`: the IC50 in series [1] was found to be 1.2 µM; in [2], 6.95 µM.

In [6], `Cl.c1ccc(CCCN2CCCc3[nH]c4ccccc4c3C2)cc1` returned an inhibition of 38 to 54%. In addition, the IC50 is 0.28 µM in series [1] and 20 µM in series [2]. Further, in series [7], the solubility is more than 1000 µM. In addition, the Ratio IC50 in series [5] was in the range of 10 to 100.

For the compound `O=C(c1ccccc1)N1CCCc2[nH]c3ccc(F)cc3c2C1`, the IC50 in series [1] was determined as 6 µM; in [2] it was 10.6 µM.

Take `CCN(CC)Cc1ccc(CN2CCCc3[nH]c4ccc(F)cc4c3C2)cc1`: the results for the IC50 in [1] and in [2] were 1.4 µM and 4.8 µM, respectively.

As to `Cl.c1ccc(CCCCN2CCCc3[nH]c4ccccc4c3C2)cc1`, the inhibition in [6] was 38 to 54%. In addition, the Activity result was “Tde” in series [8]; 30% in series [9]; 35% in series [11]; 30% in series [12]; “Dose-dependent effect” in series [14]. Also, the IC50 was found to be 0.17 µM in series [1]; 20 µM in [10]; 0.199 µM in series [13]; 20 µM in [2]; 10.1 µM in series [14]. In series [7], the solubility is more than 1000 µM. For the same compound, the Ratio IC50 in series [5] and in series [15] was more than 100 each time. The Ki in series [16] was found to be 0.098 µM.

For `Fc1ccc2[nH]c3c(c2c1)CCCN(Cc1ccccc1)C3`, the IC50 in series [1] is 3.4 µM; in series [2], 10.7 µM.

Turning to `Fc1ccc2[nH]c3c(c2c1)CN(Cc1ccc(CN2CCCC2)cc1)CCC3`, the results for the 50% inhibitory concentration (IC50) in [1] and in series [2] were 4.3 µM and 7.9 µM, respectively.

Turning to `Fc1ccc(CN2CCCc3[nH]c4ccccc4c3C2)cc1`, the IC50 turned out to be 1.2 µM in series [1] and 12 µM in [2]. In [5], the Ratio IC50 was 10.

On to `CN1CCCc2[nH]c3ccccc3c2C1`, for which the 50% inhibitory concentration (IC50) in series [1] is 25 µM; in series [2], 7.1 µM.

Take `Cc1ccc2[nH]c3c(c2c1)CN(C)CCC3`: the results for the IC50 in series [1] and in series [2] were 7.1 µM and 25 µM, respectively.

Regarding `c1ccc2c3c([nH]c2c1)CCCNC3`, the half-inhibitory concentration (IC50) in series [1] was found to be 20 µM; in series [2], 70 µM.

Regarding `Cc1ccc2[nH]c3c(c2c1)CNCCC3`, the IC50 was 8 µM in series [1] and 45 µM in [2].

For the compound `Fc1ccc2[nH]c3c(c2c1)CNCCC3`, the IC50 is 4.3 µM in series [1] and 16 µM in series [2].

For `Cl.c1ccc(CCN2CCCc3[nH]c4ccccc4c3C2)cc1`, in [6], the inhibition was 38 to 54%. For the same compound, the results for the IC50 in [1] and in [2] were 0.7 µM and 9 µM, respectively. The solubility in series [7] is more than 1000 µM. Further, the Ratio IC50 in [5] lay in the range of 10 to 100.
